Values of other authors in US10736937B2 (priority 2014, dated 2020).

Tested on: Streptococcus pneumoniae
Settings: mucosal administration; co-administrated with the pathogen or 2 to 24 h before bacterial challenge

flagellin
protection against Streptococcus pneumoniae lung infection: protect
